This note sets out measurements from patent US9328099B2, “Cyanomethylpyrazole carboxamides as janus kinase inhibitors” (Merck Sharp & Dohme Corp., priority 2011, dated 2016).

Chain of JAK1 (P23458 875-1153): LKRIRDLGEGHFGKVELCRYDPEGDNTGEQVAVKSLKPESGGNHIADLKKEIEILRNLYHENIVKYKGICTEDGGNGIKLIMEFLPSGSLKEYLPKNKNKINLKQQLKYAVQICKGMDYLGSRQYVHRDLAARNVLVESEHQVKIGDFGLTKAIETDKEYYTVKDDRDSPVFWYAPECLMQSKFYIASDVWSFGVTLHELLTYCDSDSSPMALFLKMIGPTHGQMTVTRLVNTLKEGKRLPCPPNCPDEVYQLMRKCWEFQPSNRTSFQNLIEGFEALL

This assay has as its target JAK1 (Homo sapiens (Human), UniProt P23458). Briefly: Jak Biochemical HTRF Assay, JAK1. Conditions: HTRF biochemical assay, GST-tagged catalytic domain; top concentration tested […]; read-out: JAK1 IC50. The text has this:
Jak Biochemical HTRF Assay Protocol
Subsequent reagent additions employed an Agilent Bravo.
In general, IC50 refers to the concentration needed to halve the response being measured. As to `CC(F)(F)C(=O)N1CC[C@](CC#N)(n2cc(C(N)=O)c(Nc3ccc(F)nc3)n2)[C@H](F)C1` (single isomer, unassigned) [Example 43-3, 1-((3R,4R or 3S,4S)-4-(cyanomethyl)-1-(2,2-difluoropropanoyl)-3-fluoropiperidin-4-yl)-3-((6-fluoropyridin-3-yl)amino)-1H-pyrazole-4-carboxamide], the IC50 was 0.9 nM.

As to `CC(F)(F)C(=O)N1CC[C@@](CC#N)(n2cc(C(N)=O)c(Nc3ccc(F)nc3)n2)[C@@H](F)C1` (single isomer, unassigned) [Example 43-4, 1-((3R,4R or 3S,4S)-4-(cyanomethyl)-1-(2,2-difluoropropanoyl)-3-fluoropiperidin-4-yl)-3-((6-fluoropyridin-3-yl)amino)-1H-pyrazole-4-carboxamide], the IC50 is 0.05 nM.

On to `N#CCC1(n2cc(C(N)=O)c(Nc3ccnc(F)c3)n2)CCN(C(=O)OC2CCOC2)CC1` (single isomer, unassigned) [Example 49-1, (3S or 3R)-tetrahydrofuran-3-yl 4-{4-carbamoyl-3-[(2-fluoropyridin-4-yl)amino]-1H-pyrazol-1-yl}-4-(cyanomethyl)piperidine-1-carboxylate], for which the IC50 is 0.6 nM.

As to `N#CCC1(n2cc(C(N)=O)c(Nc3ccnc(F)c3)n2)CCN(C(=O)OC2CCOC2)CC1` (single isomer, unassigned) [Example 49-2, (3S or 3R)-tetrahydrofuran-3-yl 4-{4-carbamoyl-3-[(2-fluoropyridin-4-yl)amino]-1H-pyrazol-1-yl}-4-(cyanomethyl)piperidine-1-carboxylate], the IC50 was found to be 0.4 nM.

For `CC(C)(C)OC(=O)C1CCC(CC#N)(n2cc(C(N)=O)c(Nc3ccccc3)n2)CC1` (stereo not drawn) [Example 2-18, tert-butyl 4-[4-carbamoyl-3-(phenylamino)-1H-pyrazol-1-yl]-4-(cyanomethyl) cyclohexanecarboxylate], the concentration for half-maximal inhibition (IC50) stood at 3 nM.

With `N#CCC1(n2cc(C(N)=O)c(Nc3ccc(F)cc3)n2)CCN(c2cncc3ccccc23)CC1` [Example 3-2, 1-[4-(cyanomethyl)-1-isoquinolin-4-ylpiperidin-4-yl]-3-[(4-fluorophenyl)amino]-1H-pyrazole-4-carboxamide], the IC50 stood at 6 nM.

Turning to `CC(C)(O)c1cccc(N2CCC(CC#N)(n3cc(C(N)=O)c(Nc4ccc(F)cc4)n3)CC2)n1` [Example 3-7, 1-{4-(cyanomethyl)-1-[6-(1-hydroxy-1-methylethyl)pyridin-2-yl]piperidin-4-yl}-3-[(4-fluorophenyl)amino]-1H-pyrazole-4-carboxamide], the IC50 was 0.3 nM.

On to `Cc1cccc(N2CCC(CC#N)(n3cc(C(N)=O)c(Nc4ccc(F)cc4)n3)CC2)n1` [Example 3-20, 1-[4-(cyanomethyl)-1-(6-methylpyridin-2-yl)piperidin-4-yl]-3-[(4-fluorophenyl)amino]-1H-pyrazole-4-carboxamide], for which the half-inhibitory concentration (IC50) was 5 nM.

`N#CCC1(n2cc(C(N)=O)c(Nc3ccc(F)cc3)n2)CCN(c2ccc(F)nc2)CC1` [Example 3-22, 1-[4-(cyanomethyl)-1-(6-fluoropyridin-3-yl)piperidin-4-yl]-3-[(4-fluorophenyl)amino]-1H-pyrazole-4-carboxamide]: the IC50 came to 0.4 nM.

`N#CCC1(n2cc(C(N)=O)c(Nc3ccc(F)cc3)n2)CCN(c2cncnc2)CC1` [Example 3-24, 1-[4-(cyanomethyl)-1-pyrimidin-5-ylpiperidin-4-yl]-3-[(4-fluorophenyl)amino]-1H-pyrazole-4-carboxamide]: the concentration for half-maximal inhibition (IC50) was 0.1 nM.

In the case of `N#CCC1(n2cc(C(N)=O)c(Nc3ccc(F)cc3)n2)CCN(c2cccc(F)c2)CC1` [Example 3-27, 1-[4-(cyanomethyl)-1-(3-fluorophenyl)piperidin-4-yl]-3-[(4-fluorophenyl)amino]-1H-pyrazole-4-carboxamide], the 50% inhibitory concentration (IC50) stood at 1 nM.

For the molecule `CS(=O)(=O)c1ccc(Nc2nn(C3(CC#N)CCOCC3)cc2C(N)=O)cc1` [Example 4-5, 1-[4-(cyanomethyl)tetrahydro-2H-pyran-4-yl]-3-{[4-(methylsulfonyl)phenyl]amino}-1H-pyrazole-4-carboxamide], the IC50 was determined as 22 nM.

`N#CCC1(n2cc(C(N)=O)c(Nc3ccc(F)cc3)n2)CCSCC1` [Example 7, 1-(4-(Cyanomethyl)tetrahydro-2H-thiopyran-4-yl)-3-((4-fluorophenyl)amino)-1H-pyrazole-4-carboxamide]: the IC50 turned out to be 8 nM.

For `CC(C)(C)OC(=O)N1CCC(CC#N)(n2cc(C(N)=O)c(Nc3ccc(S(=O)(=O)C(F)(F)F)cc3)n2)CC1` [Example 9-15, tert-butyl 4-[4-carbamoyl-3-({4-[(trifluoromethyl)sulfonyl]phenyl}amino)-1H-pyrazol-1-yl]-4-(cyanomethyl)piperidine-1-carboxylate], the IC50 was 2 nM.

Take `COc1cc(Nc2nn(C3(CC#N)CCN(C(=O)OC(C)(C)C)CC3)cc2C(N)=O)ccn1` [Example 9-19, tert-butyl 4-{4-carbamoyl-3-[(2-methoxypyridin-4-yl)amino]-1H-pyrazol-1-yl}-4-(cyanomethyl)piperidine-1-carboxylate]: the IC50 was 6 nM.

`CC(C)(C)OC(=O)N1CCC(CC#N)(n2cc(C(N)=O)c(Nc3ccnc(C(F)(F)F)c3)n2)CC1` [Example 9-23, tert-butyl 4-(4-carbamoyl-3-{[2-(trifluoromethyl)pyridin-4-yl]amino}-1H-pyrazol-1-yl)-4-(cyanomethyl)piperidine-1-carboxylate]: the IC50 turned out to be 0.4 nM.

Take `CC(C)(C)OC(=O)N1CCC(CC#N)(n2cc(C(N)=O)c(Nc3ccnc(C(N)=O)c3)n2)CC1` [Example 9-27, tert-butyl 4-{4-carbamoyl-3-[(2-carbamoylpyridin-4-yl)amino]-1H-pyrazol-1-yl}-4-(cyanomethyl)piperidine-1-carboxylate]: the IC50 was found to be 0.4 nM.

As to `N#CCC1(n2cc(C(N)=O)c(Nc3ccc(OC4CCC4)nc3)n2)CCN(C(=O)OCC(F)F)CC1` [Example 9-37, 2,2-difluoroethyl 4-(4-carbamoyl-3-{[6-(cyclobutyloxy)pyridin-3-yl]amino}-1H-pyrazol-1-yl)-4-(cyanomethyl)piperidine-1-carboxylate], the IC50 was 0.2 nM.

Consider `N#CCC1(n2cc(C(N)=O)c(Nc3ccc(C4CC4)nc3)n2)CCN(C(=O)OCC(F)F)CC1` [Example 9-40, 2,2-difluoroethyl 4-{4-carbamoyl-3-[(6-cyclopropylpyridin-3-yl)amino]-1H-pyrazol-1-yl}-4-(cyanomethyl)piperidine-1-carboxylate], for which the IC50 turned out to be 0.7 nM.

On to `CC(C)(O)c1ccc(Nc2nn(C3(CC#N)CCN(C(=O)OCC(F)(F)F)CC3)cc2C(N)=O)cn1` [Example 10-1, 2,2,2-Trifluoroethyl 4-(4-carbamoyl-3-(6-(2-hydroxypropan-2-yl)pyridin-3-ylamino)-1H-pyrazol-1-yl)-4-(cyanomethyl)piperidine-1-carboxylate], for which the IC50 was 0.1 nM.

For the molecule `CC(C)(C)OC(=O)N1CCC(CC#N)(n2cc(C(N)=O)c(Nc3cccc(Br)c3)n2)CC1` [Example 12-1, tert-Butyl 4-{3-[(3-bromophenyl)amino]-4-carbamoyl-1H-pyrazol-1-yl}-4-(cyanomethyl)piperidine-1-carboxylate], the IC50 is 1 nM.
